Results reported in BigSolDB 2.1.

CCOc1ccc(C2NC(=O)NC=C2C(=O)c2cc(OC)c(OC)c(OC)c2)cc1 (stereo not given)
solubility (mole fraction) (in PEG-400, 298.15 K): 0.00513
solubility (mole fraction) (in PEG-400, 303.15 K): 0.00678
solubility (mole fraction) (in PEG-400, 308.15 K): 0.0083
solubility (mole fraction) (in PEG-400, 313.15 K): 0.0104
solubility (mole fraction) (in PEG-400, 318.15 K): 0.0122
solubility (mole fraction) (in water, 298.15 K): 8.04e-06
solubility (mole fraction) (in water, 303.15 K): 1.11e-05
solubility (mole fraction) (in water, 308.15 K): 1.52e-05
solubility (mole fraction) (in water, 313.15 K): 2.04e-05
solubility (mole fraction) (in water, 318.15 K): 2.57e-05
